# Results reported in patent US20260151457A1, “Peptides and Fragments for Treating Diabetes and Associated Metabolic Diseases” (Betavive Ltd., priority 2024, published 2026).
# “Also recorded” adds a separate entry of the source.
# What was measured:
# [1] = tested on: C57BL/6 STZ mice; assay: Fasting blood glucose in STZ-induced diabetic C57BL/6 mice treated with IGF-2; assay type: in vivo; conditions: for Fasting glucose levels: individual mice per block
# Method: C57BL/6 mice male 8-10 weeks old, housed under conventional conditions and allowed laboratory chow and water ad libitum, were used in the experiments described below in Examples 3-4. Within each experiment, animals were matched by age and weight (20-24 g) and randomly divided into groups to receive different treatments. Diabetes was induced by one or more doses of streptozotocin (STZ).
# Briefly, animals received intraperitoneally (i.p.) 100 mg/kg (b.w.) STZ (Cayman Chemical, Ann Arbor, MI) dissolved in citrate buffer on pH 4.5 (this procedure was repeated if needed). Clinical diabetes was defined by hyperglycemia (blood glucose levels >300 mg/dl in fasted animals). Fasting blood glucose levels were measured three times per week and samples were taken from the tail tip after starvation for 6 hours throughout the experiment.
# Fasting blood glucose levels (mg/dL) were determined using the Accu-Chek Performa glucometer (Roche Diagnostics, Mannheim, Germany). After approximately two weeks of stable hyperglycemia, C57BL/6 STZ mice received exogenous injections of recombinant human IGF-2 (0.3-12 mg/kg/day injection) intraperitoneally for 5-10 consecutive days. During post-treatment follow-up period and upon termination, mice were tested for: fasting glucose, body weight, glucose tolerance test (IPGTT), serum C-peptide level, serum insulin level, and full blood and histological analysis (CBC, Chemistry, Insulin IHC and H&E).
# [2] = Blood concentration of IGF-2 after 40 μg intraperitoneal injection (ELISA); assay type: in vivo, mouse; conditions: 240 minute time frame
# Source text: Without being bound by this theory, it is believed that IGF-2 binding proteins may initially inactivate the biological activity of free IGF-2. And over time, the bond between IGF-2 and the binding protein may be released, increasing the bioavailability of IGF-2 and leading to a longer term effective treatment.
# [3] = tested on: mice; assay: Blood glucose concentration kinetics of IGF-2 vs. insulin in a glucose tolerance test; assay type: in vivo
# Method: IGF-2 therefore provides an effect that mimics insulin within the body, and that effect is referred to herein as an “insulinomimetic” effect. […] More specifically, when 1 unit of insulin per kg was administered, the recovery in glucose levels began after two hours. But when 800 μg/kg of IGF-2 was administered, the recovery in glucose levels began after six hours. […] In this example, administering IGF-2 can provide better results than administering insulin with respect to blood glucose levels, even when only a single dose was used. Without being bound by this theory, it is possible that the IGF-2 combines with a number of binding proteins in the blood and its active free form is then released slowly from the complex.
# [4] = tested on: STZ-treated mouse islets; assay: MTT viability of STZ-treated mouse islets; assay type: cell-based; conditions: increasing concentrations
# Source text: Yellow dye MTT is converted to a purple dye by mitochondrial reductase in viable cells. Therefore, the amount of purple dye present determined by measuring optical density of cells at 570 nm serves as a measurement of cell viability.
# [5] = average of four STZ mice, daily intraperitoneal 3000 μg/kg/day IGF-2
substance,measurement,setting,value
insulin-like growth factor 2 [IGF-2],Hypoglycemia,"[1]; 10:1 ratio of dosages, between 3000 μg and 300 μg",did not cause hypoglycemia
same,Fasting glucose levels after the ten day course of injections ended,"[1]; STZ mice F3 and F4, IGF-2 800 μg/kg/day",around 400
same,Fasting glucose levels,"[1]; STZ mice, IGF-2 300 μg/kg/day, initial plus ten additional doses","did not return to a normal range, and long-term results were not observed; also recorded: temporary drop in fasting glucose levels from days 10-25, but the long-term results were similar to the results for Mouse B5"
same,Fasting glucose levels,"[1]; STZ mice, IGF-2 800 μg/kg/day, day 0 and ten more times within ten days","returned to a normal range during the ten-day course of treatment with IGF-2, and remained in the normal range until the end of the experiment; also recorded: returned to a normal range during the ten-day course of treatment with IGF-2, and remained in the normal range until STZ was provided again"
same,Blood glucose levels remaining (full or almost full resolution),"[1]; STZ mice, IGF-2 800 μg/kg/day, half the mice (FIGS. 5A, 5B)",~200 mg/dL
same,Blood glucose levels remaining (partial improvement),"[1]; STZ mice, IGF-2 800 μg/kg/day, the remaining mice (FIGS. 6A, 6B)",~400 mg/dL
same,Fasting glucose levels,"[1]; STZ mice, IGF-2 3000 μg/kg/day, 10 day course","returned to a normal range during the ten-day course of treatment with IGF-2, and remained in the normal range until the end of the experiment; also recorded: returned to high levels after the 10 day course treatment with IGF-2 ended; also recorded: initially responded to treatment with a 3000 μg/kg/day dose of IGF-2 but were not permanently cured"
same,Long-term improvements in blood glucose levels,"[1]; STZ mice, IGF-2 12,000 μg/kg daily on only 5 consecutive days",long-term improvements in blood glucose levels were not obtained
same,Blood glucose level reached (normal range),[1]; [5],100 to 200 mg/dL
same,Time to reduce blood glucose to a normal range,[1]; [5],3 to 5 days
same,Hypoglycemia,"[1]; even when the IGF-2 dose was increased to 12,000 μg/kg/day",Hypoglycemia was never observed
same,Time post treatment that normal blood glucose levels are maintained,"[1]; four STZ mice, 10 day course at 3000 μg/kg/day, no additional doses",at least 300 days
same,Free IGF-2 in the blood (peak),[2],1 µg
same,Peak total concentration of IGF-2 in the blood,[2],about 16 μg
same,Glucose level after administration,[3]; glucose tolerance test in mice,decreased
same,Time after which the recovery in glucose levels began,"[3]; insulin 1 unit per kg, IGF-2 800 μg/kg, single dose",six
same,"Mouse islet viability (MTT, optical density at 570 nm)",[4],increased in a dose dependent manner
